What all share (experiment): NCI anticancer screen, dose series, 48 h
Assay [1] deals with MALME-3M melanoma.
The test system of assay [2] is HT29 colon.
In assay [3] the test system is HCT-116 colon.
Assay [4] has as its system LOX IMVI melanoma.
Assay [5] concerns MDA-MB-435.
Assay [6] concerns NCI-H460 lung.
The subject of assay [7] is SN12C renal.
Assay [8] concerns COLO 205 colon.
In assay [9] the test system is KM12 colon.
The subject of assay [10] is HS 578T breast.

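Results reflect a 48-hour exposure of cells in 96-well plates to compound at five concentrations. At the GI50, growth is halved. TGI is the concentration that stops growth completely.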

Drawing on PubChem BioAssay (NCI), this text covers TGI and GI50 for 31 molecules.

As to `Cc1ccc(N=Nc2cc(=O)[nH]c(=O)[nH]2)cc1C`, the TGI in assay [1] was 27.5 µM; in assay [2], 4.51 µM; in assay [3], 22.5 µM; in [4] it was 3.36 µM; in assay [5], 26.8 µM; in assay [6], 41.6 µM. Besides, the TGI in assay [7] is 18.6 µM; in [8] it was 19.9 µM; in [9], 24.5 µM.
On to `CCOC(=O)Cn1c(C)nc2nn(Cc3ccccc3)cc2c1=O`, for which the TGI in assay [1], in assay [2], in assay [3], in assay [10], in [5] and in assay [6] was above 100 µM in each case. The TGI in assay [7] and in [9] was above 100 µM in each case.
With `O=C(NNc1ccc([N+](=O)[O-])cc1)C1OC(CO)C(O)C1O` (configuration not stated), the TGI in assay [1], in assay [2], in [3], in assay [4], in assay [6] and in [7] was above 100 µM each time. For the same molecule, the TGI in [8] and in assay [9] was above 100 µM throughout.
Regarding `Cc1cccc(-c2cc(=O)c3c(C)ccnc3[nH]2)c1`, the TGI is above 100 µM in assay [2]; above 33.5 µM in [3]; above 100 µM in assay [10]; above 100 µM in assay [4]; 16.3 µM in assay [6]; above 100 µM in assay [7]. The TGI was 2.68 µM in [8] and 16.8 µM in assay [9].
As to `CCCCCCCCCC[C@@H](O)[C@H]1CC[C@@H]([C@H]2CC[C@H]([C@H](O)CCCCCCCCCC[C@@H]3CC(CC(C)=O)C(=O)O3)O2)O1` (some centres not stated), the TGI in assay [1] was 37.5 µM; in assay [3] it was above 100 µM; in assay [10], 3.78 µM; in [4], 27.3 µM; in assay [5], above 100 µM; in [6], above 100 µM. The TGI in assay [8] was 32.2 µM; in assay [9] it was above 100 µM. Besides, the GI50 in assay [3] is 0.218 µM; in assay [4], 0.152 µM; in assay [6], 0.0647 µM; in assay [7] it was 26.7 µM; in assay [8], 15.6 µM; in [9], 24.2 µM.
`Fc1ccccc1C1SCC2=Nc3ccccc3CN21` (configuration not stated): the TGI in assay [2], in assay [3], in assay [10], in assay [4], in [5] and in assay [6] was above 100 µM throughout. Moreover, the TGI in assay [7], in assay [8] and in assay [9] was above 100 µM throughout.
`CC(=O)Oc1ccc(-c2c(OC(C)=O)c(OC(C)=O)c(-c3ccc(OC(C)=O)c(OC(C)=O)c3)c(OC(C)=O)c2OC(C)=O)cc1`: the TGI in [1] is 30.3 µM; in assay [2], 36.1 µM; in [3], 40.2 µM; in assay [4], 31.8 µM; in [5], 31.7 µM; in [6] it was above 100 µM. The values for the TGI in [7], in [8] and in assay [9] were 35.1 µM, 32 µM and 28.1 µM, respectively.
As to `Cc1cn(C2CC(O)C(Cn3cc(Cn4nc(Br)c(=O)[nH]c4=O)nn3)O2)c(=O)[nH]c1=O` (configuration not stated), the TGI in assay [1], in assay [3], in assay [10], in assay [5], in assay [7] and in assay [8] was above 100 µM in each case. Moreover, the TGI in assay [9] is above 100 µM.
As for `C=C1C(=O)OC2C1CC1OC2C(C)CCC/C(C)=C\CCC1(C)O` (configuration not stated), the TGI in assay [1] is 80.6 µM; in assay [2], above 91.1 µM; in assay [3] it was 41 µM; in assay [4], 13.8 µM; in assay [6], 60.9 µM; in assay [7], 62.5 µM. For the same molecule, the TGI in assay [8] was 58.1 µM; in [9] it was 59 µM.
Consider `CC(C)=CCC/C(C)=C/CCC1(C)C2COC(=O)C21` (configuration not stated), for which the TGI in assay [1] was above 100 µM; in assay [2] it was above 100 µM; in assay [3], above 100 µM; in assay [4] it was 89 µM; in assay [5], above 100 µM; in [6], above 100 µM. For the same molecule, the TGI in assay [7], in assay [8] and in [9] was above 100 µM in each case.
With `Cc1ccc(Oc2cc(C)ccc2P(=O)(O)O)cc1`, the TGI in assay [3], in assay [10], in assay [4], in assay [5], in [7] and in assay [8] was above 100 µM throughout. The same molecule yielded a TGI in [9] above 100 µM.
`Cn1cnc([N+](=O)[O-])c1Sc1nncc2[nH]cnc12`: the TGI in assay [1], in [2], in assay [3], in assay [4], in [5] and in assay [7] was above 100 µM throughout. In addition, the TGI in assay [8] and in assay [9] was above 100 µM each time.
As to `Cc1ccc(NC(=O)NC23CC4CC(CC(F)(C4)C2)C3)cc1`, the TGI in assay [1], in assay [2], in assay [3], in [4], in [6] and in assay [8] was above 100 µM each time. This molecule displayed a TGI in assay [9] above 100 µM.
Consider `CC1=NN(C(=O)Cc2ccccc2)C(=O)/C1=C\c1cccc(O)c1`, for which the TGI in assay [1], in assay [2], in [3], in assay [4], in [6] and in assay [7] was above 100 µM in each case. Also, the TGI in [8] and in [9] was above 100 µM throughout.
As to `Cc1cc(=O)[nH]c(S(=O)(=O)NC(=S)Nc2ccc(Br)cc2)n1`, the TGI in assay [1], in [2], in assay [10], in assay [5], in assay [6] and in [7] was above 100 µM throughout. The same molecule showed a TGI in assay [8] above 100 µM.
As for `CCC[CH2][Ge]([CH2]CCC)([CH2]CCC)[O]C(=O)CCl`, the GI50 was 1.14 µM in assay [1]; 0.628 µM in assay [2]; 0.498 µM in assay [3]; 1.16 µM in assay [4]; 0.518 µM in [6]; 1.46 µM in assay [7]. Further, the figures for the GI50 in assay [8] and in assay [9] were 10.4 µM and 1.4 µM, respectively. The TGI in assay [1] is 12.5 µM; in [2], 11.5 µM; in assay [3], 13.3 µM; in assay [4] it was 3.52 µM; in assay [6], 13.2 µM; in assay [7], 19.3 µM. Besides, the values for the TGI in assay [8] and in [9] were 24 µM and 15.9 µM, respectively.
In the case of `CC1Oc2c(c(O)cc3oc(=O)cc(-c4ccccc4)c23)C(=O)C1C` (configuration not stated), the TGI in assay [1], in assay [4], in assay [6], in [7] and in assay [8] was above 100 µM in each case.
As for `C#Cc1ccccc1C(=O)OC`, the TGI in assay [1], in assay [2], in assay [3], in assay [4], in assay [6] and in assay [7] was above 100 µM in each case. The TGI in assay [8] and in assay [9] was above 100 µM in each case.
For the molecule `CCCCN=C(OC1C=CCCC1)SC` (configuration not stated), the TGI in [1], in assay [2], in [3], in [5], in assay [7] and in assay [8] was above 100 µM throughout.
With `O=[N+]([O-])c1ccc(-c2nc3ccccc3o2)cc1`, the TGI in assay [1], in assay [3], in [10], in [4], in [5] and in [6] was above 100 µM in each case. The TGI in assay [7], in assay [8] and in assay [9] was above 100 µM in each case.
Take `CCSc1nn(-c2c3ccccc3nc3ccccc23)c(=S)s1`: the TGI in assay [2], in assay [3], in assay [10], in assay [4], in assay [5] and in [6] was above 100 µM in each case. The TGI in assay [7], in assay [8] and in assay [9] was above 100 µM each time.
With `Brc1ccc2[nH]cc(-c3nc(-c4c[nH]c5ccncc45)cs3)c2c1`, the GI50 was 2.14 µM in assay [1], 1.66 µM in [5] and 1.79 µM in assay [7]. For the same molecule, the figures for the TGI in assay [1], in [5] and in assay [7] were 3.72 µM, 3.06 µM and 3.32 µM, respectively.
With `CC(C)(C)OC(=O)N[C@@H](Cc1ccccc1)C(=O)N1CC[C@@H](C(=O)N2[C@H]3CC4CC[C@@]3(CS2(=O)=O)C4(C)C)N1`, the TGI in [2], in assay [3], in [10], in [4], in assay [5] and in [6] was above 100 µM throughout. The TGI in assay [7], in assay [8] and in assay [9] was above 100 µM in each case.
In the case of `O.O=[Se](=O)(O)O.[NH-]C1CCCCC1[NH-].[Pt+2]` (configuration not stated), the GI50 is 8.23 µM in [1]; 4.62 µM in assay [2]; 4.36 µM in assay [3]; 8.21 µM in assay [4]; 3.77 µM in assay [6]; 23.3 µM in assay [7]. Moreover, the figures for the GI50 in assay [8] and in assay [9] were 5.82 µM and 47.2 µM, respectively. The TGI in assay [1] is 44 µM; in [2] it was above 100 µM; in assay [3], above 100 µM; in assay [4], above 74.7 µM; in [6] it was 38.7 µM; in [7] it was above 100 µM. For the same molecule, the TGI in [8] was 67.8 µM; in assay [9] it was above 100 µM.
Take `CC1(C)CN=C(c2ccc3ccccc3c2O)N1`: the TGI in assay [3], in [10], in assay [4], in assay [5], in [6] and in [7] was above 100 µM in each case. For the same molecule, the TGI in assay [8] and in assay [9] was above 100 µM each time.
As for `O=C(c1ccccc1)c1ccc2c(c1)N=C(c1ccc(Cl)c(Cl)c1)CC(c1ccc3ccccc3c1)N2` (configuration not stated), the TGI in assay [2], in assay [3], in [4], in assay [6], in assay [7] and in assay [8] was above 100 µM each time. In addition, the TGI in [9] is above 100 µM.
With `COc1cccc2c1C(=O)c1c(O)c3c(c(O)c1C2=O)C[C@](O)(C(=O)CO)CC3OC1CC(N)C(OC2CCCCO2)C(C)O1` (some centres not stated), the TGI in [1] was determined as 0.705 µM; in assay [2], 4.52 µM; in [3], 2.49 µM; in assay [4] it was 1.66 µM; in assay [6] it was 0.208 µM; in [7] it was 3.12 µM. The TGI in [8] was determined as 2.61 µM.
Take `COc1cccc(C2c3cc4c(cc3OC(N3CCOCC3)C2C)OCO4)c1` (configuration not stated): the TGI is above 100 µM in assay [1]; 25 µM in [2]; 34.9 µM in [3]; 60.1 µM in [10]; 18.1 µM in assay [4]; 37.7 µM in assay [6]. Besides, the TGI is above 100 µM in [7] and 29.8 µM in [8].
Take `CC(=O)N/N=C1\NN(C(C)=O)C2(S1)C(=O)Nc1ccccc12` (configuration not stated): the TGI in assay [1], in assay [2], in assay [3], in assay [4], in [5] and in assay [6] was above 100 µM throughout. In addition, the TGI in [7] and in [9] was above 100 µM in each case.
As for `COc1ccc(/C(Cl)=C(\C=O)c2ccc(Cl)cc2)cc1`, the TGI in [1] is above 100 µM; in assay [2] it was 15.6 µM; in [3] it was 20.8 µM; in assay [4], 23.8 µM; in assay [6], above 100 µM; in assay [7], 13.6 µM.
As to `CN(c1ccccc1)c1c(-c2ccccc2)c(=O)oc2c1ccc1occc12`, the TGI in [1], in assay [2], in assay [3], in [4], in assay [6] and in assay [7] was above 100 µM in each case. For the same molecule, the TGI in assay [8] and in assay [9] was above 100 µM in each case.
